Laboratory results from patent publication US20250230193A1, “CYCLIC COMPOUND HAVING SELECTIVE KRAS INHIBITORY EFFECT ON HRAS AND NRAS” (CHUGAI SEIYAKU KABUSHIKI KAISHA, priority 2022, published 2025).
Where a SMILES comes first, the peptide text is derived from it. Bridges are numbered along the chain shown (N, C = ends). [ ]: non-standard residue; d: D form. The star is where a group is joined. hPhe(3-Cl-4-CF3) = N[C@@H](CCc1ccc(C(F)(F)F)c(Cl)c1)C(=O)O; NPrPhe(4-CF3) = CCCN[C@@H](Cc1ccc(C(F)(F)F)cc1)C(=O)O; NMeGly(cPent) = CN[C@H](C(=O)O)C1CCCC1; Gly(cBu) = N[C@H](C(=O)O)C1CCC1; NMeD = CN[C@@H](CC(=O)O)C(=O)O; NMeL = CN[C@@H](CC(C)C)C(=O)O; Morpholide = C1CN(*)CCO1; Ac5c = NC1(C(=O)O)CCCC1; Aze = O=C(O)[C@@H]1CCN1; Sar = CNCC(=O)O

What was measured:
[1] = biological target: GDP-bound NRAS wild-type protein (Homo sapiens, UniProt P01111); assay: Binding to NRAS by surface plasmon resonance (SPR), Single Cycle Kinetics
[2] = biological target: GDP-bound HRAS wild-type protein (Homo sapiens, UniProt P01112); assay: Binding to HRAS by surface plasmon resonance (SPR), Single Cycle Kinetics
[3] = KD ratio NRAS/KRAS, SPR, GDP-bound wild-type proteins
[4] = KD ratio HRAS/KRAS, SPR, GDP-bound wild-type proteins

Chain of GDP-bound HRAS wild-type protein (P01112 whole entry): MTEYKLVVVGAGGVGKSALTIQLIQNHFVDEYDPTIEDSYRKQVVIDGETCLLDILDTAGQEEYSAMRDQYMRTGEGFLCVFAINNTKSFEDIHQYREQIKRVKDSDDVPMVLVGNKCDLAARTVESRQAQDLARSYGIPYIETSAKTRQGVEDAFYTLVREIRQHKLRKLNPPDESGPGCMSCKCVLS
Chain of GDP-bound NRAS wild-type protein (P01111 whole entry): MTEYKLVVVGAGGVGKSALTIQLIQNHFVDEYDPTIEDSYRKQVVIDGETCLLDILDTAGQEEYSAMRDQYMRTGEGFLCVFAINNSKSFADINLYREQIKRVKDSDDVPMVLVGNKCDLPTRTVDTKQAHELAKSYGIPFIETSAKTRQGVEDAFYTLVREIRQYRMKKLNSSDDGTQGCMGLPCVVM

## CCO[C@@H]1C[C@H]2C(=O)NC3(CCC3)C(=O)N(C)[C@@H](C(CC)CC)C(=O)N(C)[C@H](C(=O)N3CCCC3)CC(=O)N(C)[C@H]3CCCC/C=C/c4ccc(cc4)C[C@@H](C(=O)N(C)CC(=O)N[C@@H](CCc4ccc(Cl)c(Cl)c4)C(=O)N2C1)N1CC/C=C\C[C@@H](C1=O)N(C)C(=O)CN(C)C(=O)[C@H]([C@@H](C)CC)NC3=O [PP3047, (1S,7S,11R,13S,19S,22S,26S,29S,35S,37Z,47E)-7-[2-(3,4-dichlorophenyl)ethyl]-11-ethoxy-19-(1-ethylpropyl)-3,18,21,25,31,34-hexamethyl-29-[(1S)-1-methylpropyl]-22-(pyrrolidine-1-carbonyl)spiro[3,6,9,15,18,21,25,28,31,34,41-undecazapentacyclo[24.15.11.2^43,46.1^35,41.0^9,13]pentapentaconta-37,43(54),44,46(53),47-pentaene-16,1′-cyclobutane]-2,5,8,14,17,20,24,27,30,33,55-undecone]
[1]; [3]
  NRAS/KRAS (ratio of KD value with respect to GDP-bound NRAS wild-type protein to KD value with respect to KRAS): AA (a compound having 20 or more is denoted as AA)
[2]; [4]
  HRAS/KRAS (ratio of KD value with respect to GDP-bound HRAS wild-type protein to KD value with respect to KRAS): A (a compound having 10 or more and less than 20 is denoted as A)

## CCO[C@@H]1C[C@H]2C(=O)NC3(CC(C)(C)C3)C(=O)N(C)[C@@H](C3CCCC3)C(=O)N(C)[C@H](C(=O)N(C)CC)CC(=O)N(C)[C@@H](COC)C(=O)N[C@@H]([C@@H](C)CC)C(=O)N(C)CC(=O)N(C)[C@H]3C/C=C\CCN(C3=O)[C@@H](Cc3ccc(C)cc3)C(=O)N(C)CC(=O)N[C@@H](CCc3cc(F)c(C(F)(F)F)c(F)c3)C(=O)N2C1 [PP2396]
[1]; SPR, GDP-bound NRAS wild-type vs GDP-bound KRAS wild-type
  NRAS/KRAS (ratio of KD value with respect to NRAS to KD value with respect to KRAS): A (a compound having 10 or more and less than 20 is denoted as A)
[2]; SPR, GDP-bound HRAS wild-type vs GDP-bound KRAS wild-type
  HRAS/KRAS (ratio of KD value with respect to HRAS to KD value with respect to KRAS): A (a compound having 10 or more and less than 20 is denoted as A)

## CCCN1C(=O)CN(C)C(=O)[C@@H]2CCN2C(=O)[C@H](C2CCC2)NC(=O)[C@H](CC(C)C)N(C)C(=O)C[C@@H](C(=O)N2CCOCC2)N(C)C(=O)[C@H](C2CCCC2)N(C)C(=O)C2(CCCC2)NC(=O)[C@@H]2CCCN2C(=O)[C@H](CCc2ccc(C(F)(F)F)c(Cl)c2)NC(=O)CN(C)C(=O)[C@@H]1Cc1ccc(C(F)(F)F)cc1 [PP0305] ([NMeL][Gly(cBu)][Aze][Sar][NPrPhe(4-CF3)][Sar][hPhe(3-Cl-4-CF3)]P[Ac5c][NMeGly(cPent)][NMeD]-Morpholide; lactam N-11)
[1]; KD ratio NRAS/KRAS, SPR
  NRAS/KRAS (ratio of KD for GDP-bound NRAS wild-type to KD for KRAS): B (a compound having 3 or more and less than 10 is denoted as B)
[2]; KD ratio HRAS/KRAS, SPR
  HRAS/KRAS (ratio of KD for GDP-bound HRAS wild-type to KD for KRAS): C (A compound having a KD ratio of 0.1 or more and less than 3 is denoted as C)

## CCO[C@@H]1C[C@H]2C(=O)NC3(CC(C)(C)C3)C(=O)N(C)[C@@H](C3CCCC3)C(=O)N(C)[C@H](C(=O)N3CCCCC3)CC(=O)N(C)[C@H]3CCC/C=C/c4ccc(cc4)C[C@@H](C(=O)N(C)CC(=O)N[C@@H](CCc4cc(F)c(C(F)(F)F)c(F)c4)C(=O)N2C1)N1CC/C=C\C[C@@H](C1=O)N(C)C(=O)CN(C)C(=O)[C@H]([C@@H](C)CC)NC3=O [PP2573]
[1]; KD ratio NRAS/KRAS, class symbols
  NRAS/KRAS (ratio of KD value with respect to GDP-bound NRAS wild-type protein to KD value with respect to KRAS): A (a compound having 10 or more and less than 20 is denoted as A)
[2]; KD ratio HRAS/KRAS, class symbols
  HRAS/KRAS (ratio of KD value with respect to GDP-bound HRAS wild-type protein to KD value with respect to KRAS): A (a compound having 10 or more and less than 20 is denoted as A)

## CCC[C@H]1C(=O)N[C@@H](C2CCCC2)C(=O)N(C)CC(=O)N(C)[C@H]2C/C=C\CCN(C2=O)[C@@H](Cc2ccc(C(F)(F)F)cc2)C(=O)N(C)CC(=O)N[C@@H](CCc2ccc(C(F)(F)F)c(Cl)c2)C(=O)N2CC3(CC3)C[C@H]2C(=O)NC2(CC(C)(C)C2)C(=O)N(C)[C@@H](CC(C)(C)C)C(=O)N(C)[C@H](C(=O)N(C)C)CC(=O)N1C [PP2981]
[1]; [3]
  NRAS/KRAS (ratio of KD value with respect to GDP-bound NRAS wild-type protein to KD value with respect to KRAS): AA (a compound having 20 or more is denoted as AA)
[2]; [4]
  HRAS/KRAS (ratio of KD value with respect to GDP-bound HRAS wild-type protein to KD value with respect to KRAS): A (a compound having 10 or more and less than 20 is denoted as A)
